# Source: ChEMBL document CHEMBL1123455, “Conformational effects on the activity of drugs. 11. Stereostructural models for the direct activation of the alpha- and beta-adrenergic receptor” (J Med Chem, 1986)
# Experiments:
# [1] = molecular target: T1, Adrenergic receptor beta (Homo sapiens) (UniProt P08588+P07550+P13945); conditions: Cavia porcellus
# Description: Compound was tested for beta adrenergic receptor activity in isolated guinea pig atria
# [2] = molecular target: T1, Adrenergic receptor beta (Homo sapiens); conditions: Cavia porcellus; remark: listed apart in the source
# Description: Compound was tested for beta adrenergic receptor activity in isolated guinea pig tracheal strip
# [3] = molecular target: T1, Adrenergic receptor beta (Homo sapiens); experiment: Intrinsic activity beta adrenergic receptor in isolated guinea pig tracheal strip; conditions: Cavia porcellus; target entry is the homologue from another species
# [4] = molecular target: T2, Adrenergic receptor alpha (Rattus norvegicus) (UniProt P15823+P23944+P43140+P22086+P19328+P22909); experiment: Intrinsic activity against alpha-adrenoceptor in isolated rat tail artery
# [5] = molecular target: T2, Adrenergic receptor alpha (Rattus norvegicus); experiment: Intrinsic activity against alpha-adrenoceptor in isolated rat vas deferens; type: tissue-based
# [6] = molecular target: T1, Adrenergic receptor beta (Homo sapiens); conditions: Cavia porcellus; remark: listed apart in the source
# Description: Compound was tested for beta-adrenoceptor activity in isolated guinea pig atria
# [7] = molecular target: T2, Adrenergic receptor alpha (Rattus norvegicus); conditions: Artery
# Description: Compound was tested for alpha-adrenoceptor activity in isolated rat tail artery
# [8] = molecular target: T2, Adrenergic receptor alpha (Rattus norvegicus); conditions: Vas deferens
# Description: Compound was tested for alpha-adrenoceptor activity in isolated rat vas deferens
SMILES,pD2 [1],pD2 [2],Intrinsic activity [4],Intrinsic activity [5],also measured
CC(C)N1CCCC(O)(c2ccc(O)c(O)c2)C1 (centres undefined),8.14,8.26,–,–,–
CC(C)N1CCOC(c2ccc(O)c(O)c2)C1 (centres undefined),5.74,6.34,–,–,–
NC1CCc2c(ccc(O)c2O)[C@H]1O (some centres undefined),6.74,7.49,–,–,–
Oc1ccc(C2(O)CCCNC2)cc1O (centres undefined),–,–,1,0.95,Intrinsic activity [3]: 0.77
Oc1ccc(C2CNCCO2)cc1O (centres undefined),–,–,0.92,0.91,–
NC[C@H](O)c1ccc(O)c(O)c1,–,6.04,1,1,pD2 [6]: 6.5; pD2 [7]: 6.16; pD2 [8]: 4.96
CC(C)N[C@@H]1CCc2c(ccc(O)c2O)[C@H]1O,7.56,8.41,–,–,–
